Source: patent publication US9650379B2 (CHONG KUN DANG PHARMACEUTICAL CORP., priority 2013, dated 2017)

How the values were obtained:
HDAC6 human recombinant = target: T1, HDAC6 human recombinant (Homo sapiens, UniProt Q9UBN7); assay: Inhibition of HDAC6 activity (fluorimetric assay); assay type: biochemical; conditions: test concentrations 0.1, 1, 10, 100 and 1000 nM; 37° C., 60 minutes
T1 construct: purchased Calbiochem 382180
T1 sequence (Q9UBN7 1-1215): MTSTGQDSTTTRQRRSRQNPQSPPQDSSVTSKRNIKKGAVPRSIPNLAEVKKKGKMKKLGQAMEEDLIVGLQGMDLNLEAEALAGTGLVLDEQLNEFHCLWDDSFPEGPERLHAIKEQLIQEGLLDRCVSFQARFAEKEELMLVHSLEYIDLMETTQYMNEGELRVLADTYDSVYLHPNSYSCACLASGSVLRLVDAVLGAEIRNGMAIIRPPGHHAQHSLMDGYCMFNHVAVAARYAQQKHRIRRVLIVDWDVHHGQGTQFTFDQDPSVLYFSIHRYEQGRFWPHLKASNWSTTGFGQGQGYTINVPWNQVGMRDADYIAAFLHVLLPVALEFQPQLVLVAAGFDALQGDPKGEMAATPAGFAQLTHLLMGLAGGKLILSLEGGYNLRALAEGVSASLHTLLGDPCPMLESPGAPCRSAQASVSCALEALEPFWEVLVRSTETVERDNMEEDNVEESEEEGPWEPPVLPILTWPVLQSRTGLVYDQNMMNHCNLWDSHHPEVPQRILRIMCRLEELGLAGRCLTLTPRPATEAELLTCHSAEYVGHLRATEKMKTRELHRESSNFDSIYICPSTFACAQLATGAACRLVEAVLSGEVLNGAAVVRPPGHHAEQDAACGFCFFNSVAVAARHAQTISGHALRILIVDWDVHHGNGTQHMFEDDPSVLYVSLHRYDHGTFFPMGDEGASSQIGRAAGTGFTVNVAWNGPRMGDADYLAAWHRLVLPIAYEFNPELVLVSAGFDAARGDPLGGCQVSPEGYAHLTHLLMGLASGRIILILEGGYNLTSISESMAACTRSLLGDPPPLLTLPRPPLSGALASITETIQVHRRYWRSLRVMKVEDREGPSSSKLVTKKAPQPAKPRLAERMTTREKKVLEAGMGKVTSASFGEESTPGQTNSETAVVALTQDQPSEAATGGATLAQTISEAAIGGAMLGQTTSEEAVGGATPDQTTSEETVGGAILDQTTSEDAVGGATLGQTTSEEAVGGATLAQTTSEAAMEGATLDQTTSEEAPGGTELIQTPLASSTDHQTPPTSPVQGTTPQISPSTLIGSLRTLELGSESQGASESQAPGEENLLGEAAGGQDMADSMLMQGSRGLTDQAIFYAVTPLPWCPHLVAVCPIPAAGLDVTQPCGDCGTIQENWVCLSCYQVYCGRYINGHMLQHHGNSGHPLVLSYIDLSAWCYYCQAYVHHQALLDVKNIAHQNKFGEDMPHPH
Method in brief: (§1)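 HDAC1 tested with the kit assay mixture at 100, 1000 and 10000 nM compound; recombinant human HDAC6 at 0.1, 1, 10, 100 and 1000 nM. Reaction ran 60 min at 37° C, then developer was added for 30 min at 37° C and fluorescence quantified.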

HDAC1 = target: T2, HDAC1 (Homo sapiens, UniProt Q13547); assay: Inhibition of HDAC1 activity (HDAC1 fluorimetric drug discovery assay kit); assay type: biochemical; conditions: test concentrations 100, 1000 and 10000 nM; 37° C., 60 minutes
T2 construct: purchased Enzolifesciences BML-AK511
T2 sequence (Q13547 whole entry): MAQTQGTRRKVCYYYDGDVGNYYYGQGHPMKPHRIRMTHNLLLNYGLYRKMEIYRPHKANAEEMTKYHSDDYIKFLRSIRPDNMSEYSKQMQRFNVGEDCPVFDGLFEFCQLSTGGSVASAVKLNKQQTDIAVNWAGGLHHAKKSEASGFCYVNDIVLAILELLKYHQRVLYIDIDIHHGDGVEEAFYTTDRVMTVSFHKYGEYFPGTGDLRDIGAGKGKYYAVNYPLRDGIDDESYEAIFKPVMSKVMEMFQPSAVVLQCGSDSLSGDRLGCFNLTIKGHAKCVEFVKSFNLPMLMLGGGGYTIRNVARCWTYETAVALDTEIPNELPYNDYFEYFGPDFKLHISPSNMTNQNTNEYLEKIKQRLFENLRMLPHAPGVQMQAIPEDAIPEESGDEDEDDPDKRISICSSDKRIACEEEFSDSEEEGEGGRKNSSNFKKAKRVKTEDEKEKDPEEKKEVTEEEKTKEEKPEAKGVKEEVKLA
Method in brief: as §1

Structure (SMILES)	IC50 (HDAC6 human recombinant) [nM]	IC50 (HDAC1) [nM]
O=C(NO)c1ccc(Cn2ccc3c(N4CCN(Cc5cccc(F)c5)CC4)ccnc32)cc1 [Compound 848, 4-((4-(4-(3-fluorobenzyl)piperazin-1-yl)-1H-pyrrolo[2,3-b]pyridin-1-yl)methyl)-N-hydroxybenzamide]	9.1	850
O=C(NO)c1ccc(Cn2ccc3c(N4CCN(Cc5cccnc5)CC4)ccnc32)cc1 [Compound 849, N-hydroxy-4-((4-(4-(pyridin-3-ylmethyl)piperazin-1-yl)-1H-pyrrolo[2,3-b]pyridin-1-yl)methyl)benzamide]	11.7	290
O=C(NO)c1ccc(Cn2ccc3c(N4CCN(Cc5ccncc5)CC4)ccnc32)cc1 [Compound 850, N-hydroxy-4-((4-(4-(pyridin-4-ylmethyl)piperazin-1-yl)-1H-pyrrolo[2,3-b]pyridin-1-yl)methyl)benzamide]	4.4	220
O=C(NO)c1ccc(Cn2ccc3cc(N4CCN(Cc5cccc(F)c5)CC4)cnc32)cc1 [Compound 851, 4-((5-(4-(3-fluorobenzyl)piperazin-1-yl)-1H-pyrrolo[2,3-b]pyridin-1-yl)methyl)-N-hydroxybenzamide]	12.7	1930
CC(C)CN1CCN(c2cnc3c(ccn3Cc3ccc(C(=O)NO)cc3)c2)CC1 [Compound 853, N-hydroxy-4-((5-(4-isobutylpiperazin-1-yl)-1H-pyrrolo[2,3-b]pyridin-1-yl)methyl)benzamide]	24	3510
CC(C)(F)C(=O)N1CCC(c2cnc3c(ccn3Cc3ccc(C(=O)NO)cc3)c2)CC1 [Compound 854, 4-((5-(1-(2-fluoro-2-methylpropanoyl)piperidin-4-yl)-1H-pyrrolo[2,3-b]pyridin-1-yl)methyl)-N-hydroxybenzamide]	5	350
CC(C)(F)C(=O)N1CCN(c2cnc3c(ccn3Cc3ccc(C(=O)NO)cc3)c2)CC1 [Compound 855, 4-((5-(4-(2-fluoro-2-methylpropanoyl)piperazin-1-yl)-1H-pyrrolo[2,3-b]pyridin-1-yl)methyl)-N-hydroxybenzamide]	3.5	250
CC(C)(F)C(=O)N1CCN(c2ccnc3c2ccn3Cc2ccc(C(=O)NO)cc2)CC1 [Compound 856, 4-((4-(4-(2-fluoro-2-methylpropanoyl)piperazin-1-yl)-1H-pyrrolo[2,3-b]pyridin-1-yl)methyl)-N-hydroxybenzamide]	2.3	80
C[C@@H]1CN(c2cnc3c(ccn3Cc3ccc(C(=O)NO)cc3)c2)C[C@H](C)N1Cc1cccc(F)c1 [Compound 857, 4-((5-((3S,5R)-4-(3-fluorobenzyl)-3,5-dimethylpiperazin-1-yl)-1H-pyrrolo[2,3-b]pyridin-1-yl)methyl)-N-hydroxybenzamide]	24.8	2140
CC(C)(F)C(=O)N1CCC(c2ccnc3c2ccn3Cc2ccc(C(=O)NO)cc2)CC1 [Compound 858, 4-((4-(1-(2-fluoro-2-methylpropanoyl)piperidin-4-yl)-1H-pyrrolo[2,3-b]pyridin-1-yl)methyl)-N-hydroxybenzamide]	3.6	60
O=C(NO)c1ccc(Cn2ccc3c(C4CCN(C(=O)c5cccc(F)c5)CC4)ccnc32)cc1 [Compound 860, 4-((4-(1-(3-fluorobenzoyl)piperidin-4-yl)-1H-pyrrolo[2,3-b]pyridin-1-yl)methyl)-N-hydroxybenzamide]	2.5	120
O=C(NO)c1ccc(Cn2ccc3cc(N4CCN(Cc5ccccc5F)CC4)cnc32)cc1 [Compound 861, 4-((5-(4-(2-fluorobenzyl)piperazin-1-yl)-1H-pyrrolo[2,3-b]pyridin-1-yl)methyl)-N-hydroxybenzamide]	11.2	1880
CC(C)(C)CCN1CCN(c2cnc3c(ccn3Cc3ccc(C(=O)NO)cc3)c2)CC1 [Compound 862, 4-((5-(4-(3,3-dimethylbutyl)piperazin-1-yl)-1H-pyrrolo[2,3-b]pyridin-1-yl)methyl)-N-hydroxybenzamide]	12.1	1430
C[C@@H]1CN(c2cnc3c(ccn3Cc3ccc(C(=O)NO)cc3)c2)C[C@H](C)N1CC(C)(C)O [Compound 865, N-hydroxy-4-((5-((3S,5R)-4-(2-hydroxy-2-methylpropyl)-3,5-dimethylpiperazin-1-yl)-1H-pyrrolo[2,3-b]pyridin-1-yl)methyl)benzamide]	12	680
CN1CCC(c2cnc3c(ccn3Cc3ccc(C(=O)NO)cc3)c2)CC1 [Compound 867, N-hydroxy-4-((5-(1-methylpiperidin-4-yl)-1H-pyrrolo[2,3-b]pyridin-1-yl)methyl)benzamide]	7.8	620
O=C(NO)c1ccc(Cn2ccc3c(C4CCN(Cc5cccc(F)c5)CC4)ccnc32)cc1 [Compound 870, 4-((4-(1-(3-fluorobenzyl)piperidin-4-yl)-1H-pyrrolo[2,3-b]pyridin-1-yl)methyl)-N-hydroxybenzamide]	20.6	330
O=C(NO)c1ccc(Cn2ccc3cc(C4CCN(Cc5cccc(C(F)(F)F)c5)CC4)cnc32)cc1 [Compound 871, N-hydroxy-4-((5-(1-(3-(trifluoromethyl)benzyl)piperidin-4-yl)-1H-pyrrolo[2,3-b]pyridin-1-yl)methyl)benzamide]	92.7	3240

The remaining compounds from weak to strong by IC50 (HDAC6 human recombinant), led by results:

IC50 (HDAC6 human recombinant) [nM]	IC50 (HDAC1) [nM]	Structure (SMILES)
165	6340	O=C(NO)c1ccc(Cn2ccc3cc(C4CCN(Cc5ccc(C(F)(F)F)cc5)CC4)cnc32)cc1 [Compound 872, N-hydroxy-4-((5-(1-(4-(trifluoromethyl)benzyl)piperidin-4-yl)-1H-pyrrolo[2,3-b]pyridin-1-yl)methyl)benzamide]
26.3	350	O=C(NO)c1ccc(Cn2ccc3c(C4CCN(Cc5ccccc5F)CC4)ccnc32)cc1 [Compound 869, 4-((4-(1-(2-fluorobenzyl)piperidin-4-yl)-1H-pyrrolo[2,3-b]pyridin-1-yl)methyl)-N-hydroxybenzamide]
18	1740	CC(C)(C)CCN1CCC(c2cnc3c(ccn3Cc3ccc(C(=O)NO)cc3)c2)CC1 [Compound 864, 4-((5-(1-(3,3-dimethylbutyl)piperidin-4-yl)-1H-pyrrolo[2,3-b]pyridin-1-yl)methyl)-N-hydroxybenzamide]
15.6	930	CC(C)(C)CN1CCC(c2ccnc3c2ccn3Cc2ccc(C(=O)NO)cc2)CC1 [Compound 868, N-hydroxy-4-((4-(1-neopentylpiperidin-4-yl)-1H-pyrrolo[2,3-b]pyridin-1-yl)methyl)benzamide]
12	1630	C[C@@H]1CN(c2cnc3c(ccn3Cc3ccc(C(=O)NO)cc3)c2)C[C@H](C)N1CC(C)(C)F [Compound 866, 4-((5-((3S,5R)-4-(2-fluoro-2-methylpropyl)-3,5-dimethylpiperazin-1-yl)-1H-pyrrolo[2,3-b]pyridin-1-yl)methyl)-N-hydroxybenzamide]
11.5	2210	O=C(NO)c1ccc(Cn2ccc3cc(N4CCN(Cc5ccc(F)cc5)CC4)cnc32)cc1 [Compound 852, 4-((5-(4-(4-fluorobenzyl)piperazin-1-yl)-1H-pyrrolo[2,3-b]pyridin-1-yl)methyl)-N-hydroxybenzamide]
11.5	1120	CC(C)CN1CCC(c2cnc3c(ccn3Cc3ccc(C(=O)NO)cc3)c2)CC1 [Compound 863, N-hydroxy-4-((5-(1-isobutylpiperidin-4-yl)-1H-pyrrolo[2,3-b]pyridin-1-yl)methyl)benzamide]
6	330	COc1cccc(CN2CCC(c3ccnc4c3ccn4Cc3ccc(C(=O)NO)cc3)CC2)c1 [Compound 859, N-hydroxy-4-((4-(1-(3-methoxybenzyl)piperidin-4-yl)-1H-pyrrolo[2,3-b]pyridin-1-yl)methyl)benzamide]
